The record followed here is patent publication US7423054B2, “Therapeutic pyrazolo[3,4-b]pyridines and indazoles” (Warner Lambert Company LLC, priority 2004, dated 2008).

Structures can show the parent of a compound that is named as a salt. Where two headings read alike, the source gives them in different places.

In assay [1] the target is T1, human norepinephrine transporter (hNET) (Homo sapiens, UniProt P23975).
T1 construct: expressed in transfected cells; host or cells: HEK-293 cells (membrane preparation)
T1 sequence (P23975 whole entry): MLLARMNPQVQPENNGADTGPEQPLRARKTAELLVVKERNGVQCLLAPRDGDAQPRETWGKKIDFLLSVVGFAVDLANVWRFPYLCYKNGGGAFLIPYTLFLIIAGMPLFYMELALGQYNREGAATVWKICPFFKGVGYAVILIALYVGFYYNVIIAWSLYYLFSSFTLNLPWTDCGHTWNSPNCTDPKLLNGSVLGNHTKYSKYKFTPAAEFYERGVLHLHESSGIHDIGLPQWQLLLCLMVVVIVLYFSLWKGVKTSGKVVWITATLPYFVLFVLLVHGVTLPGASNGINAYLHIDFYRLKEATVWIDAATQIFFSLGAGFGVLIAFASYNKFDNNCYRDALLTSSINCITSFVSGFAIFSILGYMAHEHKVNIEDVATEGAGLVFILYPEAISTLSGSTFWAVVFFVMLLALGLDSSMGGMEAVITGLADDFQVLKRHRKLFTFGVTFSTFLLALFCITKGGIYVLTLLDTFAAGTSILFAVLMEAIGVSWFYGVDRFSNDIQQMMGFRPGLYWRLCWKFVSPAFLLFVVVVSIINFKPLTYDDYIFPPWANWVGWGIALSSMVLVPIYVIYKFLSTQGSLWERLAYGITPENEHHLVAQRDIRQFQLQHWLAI
Description: hNET receptor binding ([125I]-RTI-55 displacement, membranes of transfected HEK-293 cells). The following applies: HEK-293 membranes, Ki from IC50 by Cheng-Prusoff, read-out: NET Ki. The method in brief: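 Membranes from HEK-293 cells expressing human NET were incubated 90 min at room temperature with 50 pM [125I]-RTI-55 and compound (10^−5 to 10^−12 M) in Krebs-HEPES buffer, pH 7.4. Bound radioligand was counted after filtration, with nonspecific binding defined by 10 μM desipramine. IC50 was converted to Ki by Cheng-Prusoff.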

Assay [2] concerns the target T2, human serotonin transporter (hSERT) (Homo sapiens, UniProt P31645).
T2 construct: expressed in transfected cells; host or cells: HEK-293 cells (membrane preparation)
In words: hSERT receptor binding ([125I]-RTI-55 displacement, membranes of transfected HEK-293 cells). The following applies: HEK-293 membranes, Ki from IC50 by Cheng-Prusoff, read-out: SERT Ki. The method in brief:
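Membranes from HEK-293 cells expressing human SERT were incubated 90 min at room temperature in Krebs-HEPES (pH 7.4) with 50 pM [125I]-RTI-55 and compound (10^-12 to 10^-5 M), in duplicate. Nonspecific binding was defined with 10 μM citalopram. Ki from IC50 by Cheng-Prusoff.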

Assay [3] has as its system capsaicin-induced mechanical allodynia. In words: Rat model of capsaicin-induced mechanical allodynia (paw withdrawal threshold, Von Frey). The note with it: for inhibition in vivo at 10 mg/kg: Rattus norvegicus, po, 2 h, read-out: % inhibition +/− SEM. Format: in vivo. The procedure: In certain embodiments, the compounds of formula I may be assayed for their ability to alleviate capsaicin-induced mechanical allodynia in a rat (e.g., Sluka, K A, (2002) J of Neuroscience, 22(13): 5687-5693). For example, a rat model of capsaicin-induced mechanical allodynia) can be carried out as follows:
On day 0, male Sprague-Dawley rats (˜150 g) in the dark cycle are placed in suspended wire-bottom cages and allowed to acclimate for 0.5 h in a darkened, quiet room. The day 0 paw withdrawal threshold (PWT) is determined on the left hind paw by Von Frey hair assessment using the Dixon up and down method. After assessment, the plantar muscle of the right hind paw is injected with 100 μl capsaicin (0.25% in 10% ethanol, 10% Tween 80, in sterile saline). On day 6 the PWT of the left hindpaw (contralateral from injection site) is determined for each animal. Animals from the day 6 prereads with PWT≦11.7 g are considered allodynic responders and are regrouped so that each cage had similar mean PWT values. On day 7, responders are dosed (e.g., orally, intraperitoneally, and subcutaneously, etc.) with 10 ml/kg vehicle (0.5% HPMC(hydroxy-propylmethylcellulose)/0.2% Tween™ 80), or vehicle plus compound. The contralateral PWT values are determined at 2 hours (or at about the time corresponding to the estimated Cmax) after the single dose, with the investigator blinded to the dosing scheme. Those of skill in the art can determine the appropriate time to determine the contralateral PWT value (e.g., 1 hour, 2 hours, etc.).
For each animal, the day 6 PWT value is subtracted from the 2 hour PWT value to give a delta PWT value that represents the change in PWT due to the 2 hour drug treatment. In addition, the day 6 PWT is subtracted from the day 0 PWT to give the baseline window of allodynia present in each animal. To determine % inhibition of allodynia of each animal normalized for vehicle controls, the following formula is used: % Inhibition of Allodynia=100×(Delta PWT(drug)−mean Delta PWT(vehicle))/(Baseline−mean Delta PWT(vehicle)). Pharmaceutically Acceptable Salts and Solvates
Compounds of the present invention may be assayed for their ability to alleviate capsaicin-induced mechanical allodynia in a rat model (e.g., Sluka (2002) J of Neuroscience, 22(13)5687-5693). For example, a rat model of capsaicin-induced mechanical allodynia was carried out as follows:
On day 0, male Sprague-Dawley rats (˜150 g) in the dark cycle were placed in suspended wire-bottom cages and allowed to acclimate for 0.5 hour in a darkened, quiet room. The day 0 paw withdrawal threshold (PWT) was determined on the left hind paw by Von Frey hair assessment using the Dixon up and down method. After assessment, the plantar muscle of the right hind paw was injected with 100 μl capsaicin (0.25% (w/v) in 10% ethanol, 10% Tween 80, in sterile saline). On day 6 the PWT of the left hindpaw (contralateral from injection site) was determined for each animal. Animals from the day 6 prereads with PWT≦11.7 g were considered allodynic responders and were regrouped so that each cage had similar mean PWT values.
On day 7, responders were dosed subcutaneously with 30 mg of the compound of Example 7/kg body weight, 10 mg of the compound of the compound of Example 48/kg body weight, or with vehicle alone. The vehicle was phosphate buffered saline containing 2% Cremophor®) EL (BASF).
For the animals dosed with the compound of Example 7, the contralateral PWT values were determined at 2 hour after the single dose, with the investigator blinded to the dosing scheme.
For each animal, the day 6 PWT value was subtracted from the 2 hour PWT value for the 10 mg/kg doses to give a delta PWT value that represents the change in PWT due to the […] drug treatment. In addition, the day 6 PWT was subtracted from the day 0 PWT to give the baseline window of allodynia present in each animal. […]

[4] abbreviates: male Sprague-Dawley rats, oral single dose 10 mg/kg, contralateral PWT at 2 hours after dose, mean of eight animals.

T2 sequence (P31645 whole entry): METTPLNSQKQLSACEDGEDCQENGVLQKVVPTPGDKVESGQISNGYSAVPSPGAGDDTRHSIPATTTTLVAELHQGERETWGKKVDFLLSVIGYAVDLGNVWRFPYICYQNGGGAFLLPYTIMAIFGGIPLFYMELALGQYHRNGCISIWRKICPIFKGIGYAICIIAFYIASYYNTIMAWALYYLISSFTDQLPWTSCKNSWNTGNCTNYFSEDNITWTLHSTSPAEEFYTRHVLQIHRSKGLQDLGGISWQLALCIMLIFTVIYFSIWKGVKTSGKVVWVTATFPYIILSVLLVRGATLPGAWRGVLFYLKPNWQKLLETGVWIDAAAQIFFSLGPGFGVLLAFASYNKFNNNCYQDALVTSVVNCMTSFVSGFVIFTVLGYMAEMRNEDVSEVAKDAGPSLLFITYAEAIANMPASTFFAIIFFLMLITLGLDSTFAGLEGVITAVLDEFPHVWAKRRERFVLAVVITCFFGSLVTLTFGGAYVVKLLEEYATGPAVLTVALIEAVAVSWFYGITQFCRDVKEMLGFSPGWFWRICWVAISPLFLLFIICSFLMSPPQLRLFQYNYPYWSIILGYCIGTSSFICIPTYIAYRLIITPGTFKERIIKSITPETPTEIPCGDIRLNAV

For the molecule `Fc1ccc(F)c(-n2nc(OCC3CCCNC3)c3ccccc32)c1` (racemic) [Example 31, (±)-1-(2,5-Difluoro-phenyl)-3-(piperidin-3-ylmethoxy)-1H-indazole hydrochloride], the Ki in assay [1] was determined as 0.00658 µM; in assay [2], 0.134 µM. Further, in assay [3] (setting [4]), the inhibition in vivo at 10 mg/kg came to 47%.

On to `Fc1ccc2c(c1)c(OCC1CCCNC1)nn2-c1ccccc1F` (racemic) [Example 57, (±)-5-Fluoro-1-(2-fluoro-phenyl)-3-(piperidin-3-ylmethoxy)-1H-indazole hydrochloride], for which the Ki in assay [1] came to 0.0181 µM; in assay [2] it was 0.0522 µM. Further, in assay [3] (setting [4]), the inhibition in vivo at 10 mg/kg was found to be 26%.

On to `Fc1ccccc1-n1nc(OC2CCNCC2)c2ccccc21` [Example 1, 1-(2-Fluorophenyl)-3-(piperidin-4-yloxy)-1H-indazole hydrochloride], for which the inhibitory constant (Ki) in assay [1] turned out to be 0.00314 µM; in assay [2], 0.0511 µM. In addition, the inhibition in vivo at 10 mg/kg in assay [3] was 67.7%.

For `Cl.Fc1ccccc1-n1nc(OC[C@H]2CCNC2)c2ccccc21` [Example 7, (S)-(−)-1-(2-Fluorophenyl)-3-(pyrrolidin-3-ylmethoxy)-1H-indazole hydrochloride], the Ki was found to be 0.0053 µM in assay [1] and 0.0547 µM in assay [2]. Besides, the inhibition in vivo at 10 mg/kg in assay [3] (setting [4]) was 12.2%. The “% Inhibition of Allodynia +/− SEM” value in assay [3] (male Sprague-Dawley rats, subcutaneous single dose 30 mg/kg, contralateral PWT at 2 hour after dose, mean of eight animals) is listed as 71.5 +/− 4.6%.

For `Fc1ccc(-n2nc(OC[C@H]3CCNC3)c3ccccc32)c(F)c1` [Example 8, (S)-1-(2,4-Difluoro-phenyl)-3-(pyrrolidin-3-ylmethoxy)-1H-indazole hydrochloride], the Ki amounted to 0.00519 µM in assay [1] and 0.039 µM in assay [2]. Besides, in assay [3] (setting [4]), the inhibition in vivo at 10 mg/kg was 11.5%.

As to `Fc1ccc(-n2nc(OC[C@@H]3CCNC3)c3ccccc32)c(F)c1` [Example 9, (R)-1-(2,4-Difluoro-phenyl)-3-(pyrrolidin-3-ylmethoxy)-1H-indazole hydrochloride], the inhibitory constant (Ki) was 0.00563 µM in assay [1] and 0.0816 µM in assay [2]. The inhibition in vivo at 10 mg/kg in assay [3] (setting [4]) was found to be 34.1%.

For the molecule `c1ccc(-n2nc(OC[C@@H]3CCNC3)c3ccccc32)cc1` [Example 14, (R)-1-Phenyl-3-(pyrrolidin-3-ylmethoxy)-1H-indazole hydrochloride], the Ki in assay [1] was 0.0131 µM; in assay [2] it was 0.1 µM. Moreover, the inhibition in vivo at 10 mg/kg in assay [3] (setting [4]) came out at 30.8%.

`c1ccc(-n2nc(OC3CCNCC3)c3ccccc32)cc1` [Example 20, 1-Phenyl-3-(piperidin-4-yloxy)-1H-indazole hydrochloride]: the Ki in assay [1] worked out at 0.0202 µM; in assay [2], 0.122 µM. The inhibition in vivo at 10 mg/kg in assay [3] (setting [4]) came to 41.1%.

As for `Fc1ccc(F)c(-n2nc(OC3CCNCC3)c3ccccc32)c1` [Example 27, 1-(2,5-Difluoro-phenyl)-3-(piperidin-4-yloxy)-1H-indazole hydrochloride], the Ki in assay [1] came out at 0.00634 µM; in assay [2], 0.0423 µM. In assay [3] (setting [4]), the inhibition in vivo at 10 mg/kg turned out to be 27%.

`Fc1ccc(F)c(-n2nc(OC[C@@H]3CCNC3)c3ccccc32)c1` [Example 30, (R)-1-(2,5-Difluoro-phenyl)-3-(pyrrolidin-3-ylmethoxy)-1H-indazole hydrochloride]: the Ki in assay [1] turned out to be 0.00444 µM; in assay [2], 0.0646 µM. In assay [3] (setting [4]), the inhibition in vivo at 10 mg/kg is 68%.

In the case of `Fc1ccc(F)c(-n2nc(OC[C@H]3CCNC3)c3ccccc32)c1` [Example 32, (S)-1-(2,5-Difluoro-phenyl)-3-(pyrrolidin-3-ylmethoxy)-1H-indazole hydrochloride], the figures for the Ki in assay [1] and in assay [2] were 0.00341 µM and 0.0336 µM, respectively. Also, in assay [3] (setting [4]), the inhibition in vivo at 10 mg/kg came out at 60.7%.

On to `Fc1ccc(-n2nc(OC3CCNCC3)c3ccccc32)cc1` [Example 42, 1-(4-Fluoro-phenyl)-3-(piperidin-4-yloxy)-1H-indazole hydrochloride], for which the Ki was 0.0259 µM in assay [1] and 0.081 µM in assay [2]. In addition, in assay [3] (setting [4]), the inhibition in vivo at 10 mg/kg was found to be 31.7%.

Broadly, the Ki is a dissociation constant, usually derived from enzyme kinetics or from competition with a known ligand.
